Earlier results on one molecule are cited in US10779561B2, “Resveratrol solubility” (AQUANOVA AG, priority 2016, dated 2020).

The test system of data set [1] is rats. Conditions: several in-vivo studies in rats.
In data set [2] the test system is NFκ-b. The note with it: in-vitro conditions.

Structures are written as SMILES.

As for `Oc1ccc(C=Cc2cc(O)cc(O)c2)cc1` [resveratrol], in data set [1], the neuro-protective effect result was “neuro-protective effect”. For the same molecule, the “effect on nuclear translocation of NFκ-b” value in data set [2] is listed as “inhibits the nuclear translocation of NFκ-b”.
